Like-named read-outs stand apart in the source and are kept apart here.
Columns and labels:
Format in all cases: cell-based
[1] = system: RSV-Fluc (Recombinant Respiratory Syncytial virus strain A2 containing the firefly luciferase reporter); test: microbe, parasite or virus in culture; conditions: human respiratory syncytial virus, NHBE, 72 h, read-out: RSV-Fluc EC50 (nM, NHBE)
[2] = MT4 cytotoxicity analysis (CellTiter-Glo); conditions: human
Protocol: Example 79: MT4 Cytotoxicity Analysis
3-fold serially diluted compound in DMSO, ranging from 2.5 uM to 10 mM, were added by acoustic transfer (Echo) in quadruplicate into black 384-well plates at 200 nl/well. After compound addition, 40 ul MT-4 cells at 80,000/ml were added to each well using a MicroFlo liquid dispenser (BioTek, Winooski, VT) and the cells were cultured for five days at 37° C. Following the incubation, cell viability was determined by adding 35 μL of CellTiter-Glo viability reagent and mixed thoroughly using ViaFlo 384 well workstation. The mixture was incubated for at least 10 minutes at 25° C., and the luminescence signal was quantified on an EnVision plate reader.

[3] = system: SARS-CoV-2; test: microbe, parasite or virus in culture; conditions: Severe acute respiratory syndrome coronavirus 2, 48 h

| SMILES | EC50 [1] [nM] | CC50 at 5 days ([2]; MT4 CC50 (nM)) [nM] | EC50 [3] [nM] | CC50 at 5 days ([2]; MT-4 cells, five days, CellTiter-Glo, read-out: MT4 CC50) [nM] |
| --- | --- | --- | --- | --- |
| CCCCCCCCCCCCCCCCCCOC[C@H](COc1ccc(C#N)nn1)OP(=O)(O)OC[C@H]1O[C@@](C#N)(c2ccc3c(N)ncnn23)[C@H](O)[C@@H]1O [Example 46, ((2R,3S,4R,5R)-5-(4-aminopyrrolo[2,1-f][1,2,4]triazin-7-yl)-5-cyano-3,4-dihydroxytetrahydrofuran-2-yl)methyl ((R)-1-((6-cyanopyridazin-3-yl)oxy)-3-(octadecyloxy)propan-2-yl) hydrogen phosphate] | 26 | 420 | 120 | – |
| CCCCCCCCCCCCCCCCCCNC(=O)[C@H](COP(=O)(O)OC[C@H]1O[C@@](C#N)(c2ccc3c(N)ncnn23)[C@H](O)[C@@H]1O)OCc1cc(F)cc(C#N)c1 [Example 47, ((2R,3S,4R,5R)-5-(4-aminopyrrolo[2,1-f][1,2,4]triazin-7-yl)-5-cyano-3,4-dihydroxytetrahydrofuran-2-yl)methyl ((S)-2-((3-cyano-5-fluorobenzyl)oxy)-3-(octadecylamino)-3-oxopropyl) hydrogen phosphate] | 32 | 420 | 120 | – |
| CCCCCCCCCCCCCCCCCCOC[C@H](COc1cc(F)cc(C#N)c1)OP(=O)(O)OC[C@H]1O[C@@](C#N)(c2ccc3c(N)ncnn23)[C@H](O)[C@@H]1O [Example 39, ((2R,3S,4R,5R)-5-(4-aminopyrrolo[2,1-f][1,2,4]triazin-7-yl)-5-cyano-3,4-dihydroxytetrahydrofuran-2-yl)methyl ((R)-1-(3-cyano-5-fluorophenoxy)-3-(octadecyloxy)propan-2-yl) hydrogen phosphate] | 78 | 2800 | 190 | – |
| CCCCCCCCCCCCCCCCCCOC[C@H](COP(=O)(O)OC[C@H]1O[C@@](C#N)(c2ccc3c(N)ncnn23)[C@H](O)[C@@H]1O)N1Cc2ccccc2C1 [Example 1, ((2R,3S,4R,5R)-5-(4-aminopyrrolo[2,1-f][1,2,4]triazin-7-yl)-5-cyano-3,4-dihydroxytetrahydrofuran-2-yl)methyl ((R)-2-(isoindolin-2-yl)-3-(octadecyloxy)propyl) hydrogen phosphate] | 570 | 20000 | 3200 | – |
| CCCCCCCCCCCCCCCCCCO[C@H](COCc1ccccc1)COP(=O)(O)OC[C@H]1O[C@@](C#N)(c2ccc3c(N)ncnn23)[C@H](O)[C@@H]1O [Example 22, ((2R,3S,4R,5R)-5-(4-aminopyrrolo[2,1-f][1,2,4]triazin-7-yl)-5-cyano-3,4-dihydroxytetrahydrofuran-2-yl)methyl ((R)-3-(benzyloxy)-2-(octadecyloxy)propyl) hydrogen phosphate] | 150 | – | 3900 | 9600 |
| CCCCCCCCCCCCCCCCCC(=O)NC[C@H](COP(=O)(O)OC[C@H]1O[C@@](C#N)(c2ccc3c(N)ncnn23)[C@H](O)[C@@H]1O)OCc1cc(F)cc(C#N)c1 [Example 45, ((2R,3S,4R,5R)-5-(4-aminopyrrolo[2,1-f][1,2,4]triazin-7-yl)-5-cyano-3,4-dihydroxytetrahydrofuran-2-yl)methyl ((R)-2-((3-cyano-5-fluorobenzyl)oxy)-3-stearamidopropyl) hydrogen phosphate] | 82 | 950 | 140 | – |
| CCCCCCCCCCCCCCCCCCOC[C@H](COP(=O)(O)OC[C@H]1O[C@@](C#N)(c2ccc3c(N)ncnn23)[C@H](O)[C@@H]1O)NC(=O)c1ccccc1C#N [Example 58, ((2R,3S,4R,5R)-5-(4-aminopyrrolo[2,1-f][1,2,4]triazin-7-yl)-5-cyano-3,4-dihydroxytetrahydrofuran-2-yl)methyl ((R)-2-(2-cyanobenzamido)-3-(octadecyloxy)propyl) hydrogen phosphate] | 300 | 43000 | 5100 | – |
| CCCCCCCCCCCCCCCCCCOC[C@H](CO[P@@](=O)(S)OC[C@H]1O[C@@](C#N)(c2ccc3c(N)ncnn23)[C@H](O)[C@@H]1O)OCc1ccccc1 [Example 28, O-(((2R,3S,4R,5R)-5-(4-aminopyrrolo[2,1-f][1,2,4]triazin-7-yl)-5-cyano-3,4-dihydroxytetrahydrofuran-2-yl)methyl) O—((R)-2-(benzyloxy)-3-(octadecyloxy)propyl)S-hydrogen (R)-phosphorothioate] | 190 | 24000 | 3800 | – |
| CCCCCCCCCCCCCCCCCCOC[C@H](COP(=O)(O)OC[C@H]1O[C@@](C#N)(c2ccc3c(N)ncnn23)[C@H](O)[C@@H]1O)N(C)C(=O)c1ccc(F)c(Cl)c1 [Example 4, ((2R,3S,4R,5R)-5-(4-aminopyrrolo[2,1-f][1,2,4]triazin-7-yl)-5-cyano-3,4-dihydroxytetrahydrofuran-2-yl)methyl ((R)-2-(3-chloro-4-fluoro-N-methylbenzamido)-3-(octadecyloxy)propyl) hydrogen phosphate] | 540 | 13000 | 9400 | – |
| CCCCCCCCCCCCCCCCCCC[C@H](COP(=O)(O)OC[C@H]1O[C@@](C#N)(c2ccc3c(N)ncnn23)[C@H](O)[C@@H]1O)OCc1ccc(C#N)c(F)c1 [Example 71, ((2R,3S,4R,5R)-5-(4-aminopyrrolo[2,1-f][1,2,4]triazin-7-yl)-5-cyano-3,4-dihydroxytetrahydrofuran-2-yl)methyl ((R)-2-((4-cyano-3-fluorobenzyl)oxy)henicosyl) hydrogen phosphate] | 68 | 900 | 79 | – |
| CCCCCCCCCCCCCCCCCCOC[C@H](COP(=O)(O)OC[C@H]1O[C@@](C#N)(c2ccc3c(N)ncnn23)[C@H](O)[C@@H]1O)OCc1ccc(F)c(Cl)c1F [Example 64, [(2R,3S,4R,5R)-5-(4-Aminopyrrolo[2,1-f][1,2,4]triazin-7-yl)-5-cyano-3,4-dihydroxy-tetrahydrofuran-2-yl]methyl [(2R)-2-[(3-chloro-2,4-difluoro-phenyl)methoxy]-3-octadecoxy-propyl] hydrogen phosphate] | 86 | 3100 | 400 | – |
| CCCCCCCCCCCCCCCCCCOC[C@H](COP(=O)(O)OC[C@H]1O[C@@](C#N)(c2ccc3c(N)ncnn23)[C@H](O)[C@@H]1O)OCc1cncc(S(C)(=O)=O)c1 [Example 43, ((2R,3S,4R,5R)-5-(4-aminopyrrolo[2,1-f][1,2,4]triazin-7-yl)-5-cyano-3,4-dihydroxytetrahydrofuran-2-yl)methyl ((R)-2-((5-(methylsulfonyl)pyridin-3-yl)methoxy)-3-(octadecyloxy)propyl) hydrogen phosphate] | 59 | 280 | 79 | – |
| CCCCCCCCCCCCCCCCCCOC[C@H](COP(=O)(O)OC[C@H]1O[C@@](C#N)(c2ccc3c(N)ncnn23)[C@H](O)[C@@H]1O)SCc1ccccc1 [Example 7, ((2R,3S,4R,5R)-5-(4-aminopyrrolo[2,1-f][1,2,4]triazin-7-yl)-5-cyano-3,4-dihydroxytetrahydrofuran-2-yl)methyl ((R)-2-(benzylthio)-3-(octadecyloxy)propyl) hydrogen phosphate] | 360 | 39000 | 10000 | – |
| CCCCCCCCCCCCCCOCCOP(=O)(O)OC[C@H]1O[C@@](C#N)(c2ccc3c(N)ncnn23)[C@H](O)[C@@H]1O [Example 59, [(2R,3S,4R,5R)-5-(4-Aminopyrrolo[2,1-f][1,2,4]triazin-7-yl)-5-cyano-3,4-dihydroxy-tetrahydrofuran-2-yl]methyl 2-tetradecoxyethyl hydrogen phosphate] | 170 | 16000 | 10000 | – |
| CCCCCCCCCCCCCCCCCCC[C@H](COCc1ccc(C#N)cc1F)OP(=O)(O)OC[C@H]1O[C@@](C#N)(c2ccc3c(N)ncnn23)[C@H](O)[C@@H]1O [Example 69, ((2R,3S,4R,5R)-5-(4-aminopyrrolo[2,1-f][1,2,4]triazin-7-yl)-5-cyano-3,4-dihydroxytetrahydrofuran-2-yl)methyl ((R)-1-((4-cyano-2-fluorobenzyl)oxy)henicosan-2-yl) hydrogen phosphate] | 400 | 48000 | 10000 | – |
| CCCCCCCCCCCCCCC#CC[C@H](COP(=O)(O)OC[C@H]1O[C@@](C#N)(c2ccc3c(N)ncnn23)[C@H](O)[C@@H]1O)OCc1ccc(C#N)c(F)c1 [Example 75, ((2R,3S,4R,5R)-5-(4-aminopyrrolo[2,1-f][1,2,4]triazin-7-yl)-5-cyano-3,4-dihydroxytetrahydrofuran-2-yl)methyl ((R)-2-((4-cyano-3-fluorobenzyl)oxy)nonadec-4-yn-1-yl) hydrogen phosphate] | 17 | 230 | 72 | – |
| CCCCCCCCCCCCCCCCCCOC[C@H](COP(=O)(O)OC[C@H]1O[C@@](C#N)(c2ccc3c(N)ncnn23)[C@H](O)[C@@H]1O)NC(=O)c1ccccc1C(=O)O [Example 14, 2-(((2R)-1-(((((2R,3S,4R,5R)-5-(4-aminopyrrolo[2,1-f][1,2,4]triazin-7-yl)-5-cyano-3,4-dihydroxytetrahydrofuran-2-yl)methoxy)(hydroxy)phosphoryl)oxy)-3-(octadecyloxy)propan-2-yl)carbamoyl)benzoic acid] | 53 | 26000 | 700 | – |

Source: patent publication US12208110B2 (priority 2020, dated 2025)
